Values joined by “and” are separate entries in the source; they are usually repeats but may differ in a detail not shown here. Equal entries are not always repeated.
What was measured:
Assay type in all cases: in vivo, Caenorhabditis elegans
[1] = tested on: glp-4(bn2) worms exposed to E. faecalis strain OG1RF; assay: E. faecalis infection assay (liquid); details: for E. faecalis EC: glp-4(bn2) worms, 80 h, ± 95% confidence interval
Method: (§1) Enterococcus faecalis and Staphylococcus aureus are Gram-positive bacterial species frequently responsible for nosocomial infections ([24], [25]). These bacterial species readily infect C. elegans and liquid-based pathogenesis models have been developed for each ([26][–][28]). Sterile, young adult glp-4(bn2) worms were incubated with either E. faecalis or S. aureus and various concentrations of the five compounds. […] Importantly, P. aeruginosa, E. faecalis, and S. aureus use very different mechanisms to kill C. elegans (pyoverdine-mediated mitochondrial damage, gelatinase-mediated damage to the colonized intestine, and multi-toxin-mediated intestinal effacement and damage, respectively) ([29][–][33]). The ability of these compounds to rescue against multiple pathogens that utilize a diverse set of virulence factors and mechanisms of pathogenesis further supports the idea that at least a portion of these compounds’ activity is mediated by stimulating innate immunity.
(§2) FIG 2 A subset of LK molecules rescue against E. faecalis and S. aureus. […] Compounds were serially diluted 2-fold, and young adult glp-4(bn2) worms were incubated with the pathogen for 80 h (E. faecalis) or 96 h (S. aureus). The concentrations shown are based on the mean value for at least three replicates. (B and C) Percentages of dead C. elegans after exposure to E. faecalis (B) or S. aureus (C). A representative biological replicate is shown. Each condition included at least six wells per replicate, each well contained approximately 20 worms. Three biological replicates were performed. *, P < 0.05; **, P < 0.01; ***, P < 0.001. P values were calculated using Student’s t test. Error bars represent the standard error of the mean.
The E. faecalis infection assay was performed as previously described ([27]). A single colony was used to inoculate a 5 ml of BHI liquid culture. After 16 to 24 h, 400 µl of this culture was spread on a BHI agar plate and placed at 37°C for 24 h. Next, 384-well plates were made containing 10% BHI, and E. faecalis was removed from the plate by scraping and resuspended in S Basal medium to a final OD of 0.03. Compounds at the desired concentrations or DMSO (final concentration, 1%) were then added to each well. After 3 days, the worms were transferred to new plates using a 0.05% Tween solution to prevent background fluorescence from E. faecalis biofilm. Subsequent washing, staining, imaging, and image analysis was performed identically to Pseudomonas liquid killing. EC values were defined as the minimum concentration that provided statistically significant rescue. At least three biological replicates were performed.

[2] = tested on: glp-4(bn2) worms exposed to methicillin-resistant S. aureus strain MRSA131; assay: S. aureus infection assay (liquid); details: for S. aureus EC: glp-4(bn2) worms, 96 h, ± 95% confidence interval
Method: as §1, §2
The S. aureus killing assay was performed as previously described with some changes ([26]). A single colony was used to inoculate a 5-ml aerobic culture of TSB. The following day, 100 µl of this culture was used to inoculate a second 10 ml of TSB culture wrapped with parafilm. Then, 384-well plates were made containing 10% TSB, and S. aureus from the second culture was resuspended in S Basal medium to a final OD of 0.04. Compounds were then serially diluted in a DMSO-S Basal solution to achieve the desired concentration in the wells with a 1% DMSO final concentration for all compounds. After 5 days, the worms were transferred to new plates using a 0.05% Tween solution to prevent S. aureus biofilm background fluorescence from obscuring dead worms. Subsequent washing, staining, imaging, and image analysis were performed identically to Pseudomonas liquid killing. EC values were defined as the minimum concentration that provided statistically significant rescue. At least three biological replicates were performed.

[3] = tested on: PMK-1/p38 MAPK pathway; assay: irg-5p::GFP reporter; details: 25, 50, or 100 μM, 24 h, no pathogen
Excerpt: To test activation of these pathways, worms carrying GFP-based reporters for the SKN-1/Nrf, PMK-1/p38 MAPK, and DAF-16/FOXO pathways (gst-4p::GFP, irg-5p::GFP, and DAF-16::GFP, respectively) were exposed to each compound in S Basal medium in the absence of the pathogen.
FIG 4 A subset of LK molecules activates reporters for the SKN-1/Nrf2 or PMK-1/p38 MAPK pathways. […] Also present are DMSO and ethanol negative controls for LK compounds and juglone, respectively. The fluorescence intensity was normalized to that of DMSO. (B) Worms carrying an irg-5p::GFP reporter for PMK-1/p38 MAPK activity were incubated at 25, 50, or 100 μM in 1% DMSO. Positive and negative controls consisted of 100 μM RPW-24 in 1% DMSO and 1% DMSO alone. Fluorescence was measured at 24 h. […] P values were calculated using Student’s t test. […]
Worms were washed three times prior to incubation with compounds or DMSO control and diluted in S Basal medium supplemented with E. coli OP50 (OD600 = 0.08) as a food source. The fluorescence fold increase for gst-4p::GPF was taken as the fluorescence of each well and was normalized to the well’s fluorescence at 0 h. irg-5p::GFP, hsp-16.1p::GFP, rpt-6p::GFP, and hsp-4::GFP fluorescence was quantified as the fluorescence/worm area. […] For quantification of nuclear localization of GFP fusion reporters, worms were scored as either localization positive or localization negative. […]

Row | SMILES | E. faecalis EC [1] | S. aureus EC [2] | irg-5p::GFP fluorescence (PMK-1/p38 MAPK activation) [3] | Need of MDT-15 for rescue (mdt-15(RNAi)) ([1]; E. faecalis, 32 µM) | Need of MDT-15 for rescue (mdt-15(RNAi)) ([2]; S. aureus, 32 µM)
1 | COC(=O)/C=C/C(=O)Nc1ccccc1 [LK32] | 8 µM and 8 ± 0.0 µM | > 64 µM | – | – | –
2 | CNC(=O)Oc1c(Br)cc2sc(=O)oc2c1Br [LK34] | 18.7 µM and 18.7 ± 8.7 µM | 42.7 µM and 42.7 ± 11.4 µM | – | – | –
3 | CCN(CC)/N=N/c1ccc(C(=O)O)cc1 [LK35] | > 64 µM | > 64 µM | – | – | –
4 | CN(C)/N=N/c1ccc(-c2cn(Cc3ccccc3)cn2)cc1 [LK38] | > 64 µM | > 64 µM | modest increase | – | –
5 | O=c1cc(CNc2ccc(Br)cc2)nc2sccn12 [LK56] | 10.7 µM and 10.7 ± 3.3 µM | 56 µM and 56 ± 12.8 µM | modest increase | required | required

— article PMC7845594, “Novel Immune Modulators Enhance Caenorhabditis elegans Resistance to Multiple Pathogens” (mSphere, 2021)
